Molecular target: p53 core domain (WT p53) (Homo sapiens, UniProt P04637)
Assay: intrinsic fluorescence quenching
Assay type: binding

Sequence of p53 core domain (WT p53) (P04637 94-312): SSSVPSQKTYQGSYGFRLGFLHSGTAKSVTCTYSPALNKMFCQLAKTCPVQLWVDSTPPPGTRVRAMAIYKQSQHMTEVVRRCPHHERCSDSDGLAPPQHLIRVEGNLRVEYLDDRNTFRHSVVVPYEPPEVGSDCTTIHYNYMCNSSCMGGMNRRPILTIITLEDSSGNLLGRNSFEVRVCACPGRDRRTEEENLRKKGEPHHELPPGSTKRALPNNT

Kd: 9.8 ± 0.1 µM
SMILES: CC1(C)CC(NCC(=O)N2C/C(=C\c3ccc(C#N)cc3)C(=O)/C(=C/c3ccc(C#N)cc3)C2)C(C)(C)N1[O] (stereo not shown) [AKT-100]

Source: article doi:10.1101/2025.10.06.680794v3 (biorxiv, 2026)
